# From patent US12714683B2, “Treatment of CNS disorders with sleep disturbances” (University of Copenhagen, priority 2019, dated 2026)
# Tests used:
# CaMK2a [1] = target: T1, CaMK2a (Mus musculus, UniProt P11798); test: Mouse brain 3H-HOCPCA autoradiography (Angelman syndrome Ube3a m-/p+ vs wild-type brain slices); type: binding; settings: Ube3a m-/p+ (HET, Angelman syndrome) mice vs WT; 1 nM radioligand; most pronounced in hippocampus; FIG. 1
# T1 construct: mouse brains from either (Ube3a^m−/p+) or wildtype mice, were dissected, sliced on a cryostat; from tissue; host or cells: mouse brain slices (Ube3a m-/p+ and wild-type)
# rat CaMK2a = test: 3H-HOCPCA filtration binding to recombinant wild-type or mutated CaMK2a expressed in HEK293T cells; settings: hub domain mutations Arg433Gln, Arg453Gln, Arg469Cys/Arg469Gln; HEK whole cell homogenates; expression confirmed by WB; FIG. 2
# Description: ^3H-HOCPCA Binding to Recombinant CaMK2a Expressed in HEK293T Cells
# HEK293T cells were cultured using standard conditions, using Dulbecco's modified Eagle Medium with GlutaMax, 10% fetal bovine serum and 1% penicillin-streptomycin, and incubated at 37° C. in a humidified atmosphere of […] and 5% CO2. Site-directed mutagenesis was done using point mutations and performed by GenScript USA Inc. Cells were transfected with wild-type or mutated cmyc-tagged rat CaMK2a (Origene construct RR201121), using polyethimine, linear, MW 25000 (Polysciences Inc., Warrington, PA, USA). Whole cell homogenates were prepared 48 hr post-transfection by washing the cells with ice-cold 1×PBS and harvesting by scraping. Cells were collected and centrifuged for 10 min at 1000×g. Cell pellets were resuspended in ice-cold 1×PBS and homogenized using 2×1 mm zirkonium beads in a bullet blender for 20 s at max speed (NextAdvance, NY, USA). Homogenates were cleared by centrifugation (10 min, 4° C., […]). Protein concentration was determined using the Bradford protein assay. […] Nonspecific binding was determined with 1-10 mM GHB. […] The dried filters were added scintillation liquid and radioactivity measured on a Tricarb 2100 Scintillation counter (Packard). […]
# Total expression levels of CaMK2a were assessed by Western blot with anti-myc-Alexa488 (MA1980-A488, ThermoFisher Scientific). […]
# [2] = system: DTA narcolepsy mouse model; test: DTA mouse model of narcolepsy, sleep-wake EEG/EMG and cataplexy; type: in vivo; settings: two-way ANOVA, p=0.0017, n=5-6; FIG. 3
# Description: (§1) Using the DTA narcolepsy mouse model we are determining changes in sleepwake EEG/EMG patterns (including cataplexy) at different time points (1 day to 3 weeks) under the influence of a compound of Formula I (Ph-HTBA). After drug cessation, EEG/EMG changes are then further mapped for up to 4 weeks. Under anesthesia with isoflurane (2% to 2.5% in O2) electrodes are placed in the scull and neck muscles of the mice. After 5-10 days recovery the electrodes are connected to a recording system, and EEG/EMG signals are recorded with synchronised video recordings. From the data, sleep/wake parameters and cataplexy episodes are scored and calculated FIG. 3).
# GABAB receptors = GABAB receptors (Homo sapiens, UniProt Q9UBS5); settings: cited from earlier work
# CaMK2a [3] = target: CaMK2a (Homo sapiens, UniProt Q9UQM7); settings: cited from earlier work
# [4] = system: mouse model of narcolepsy type 1; settings: Black et al. J Neurosci 2014; cited from earlier work
# [5] = system: hypocretin knock-out mouse model; test: Hypocretin knock-out mouse model of narcolepsy, sleep-wake EEG/EMG and cataplexy; type: in vivo; settings: for cataplexy: mixed-effects model with post hoc Sidak, FIG. 4
# Description: as §1, with “hypocretin knock-out” for “DTA narcolepsy”, “determine” for “are determining”, “sleep-wake” for “sleepwake”, “compound (HOCPCA)” for “compound”, “I.” for “I (Ph-HTBA).”, “(FIG. 4-5).” for “FIG. 3).”
# T1 sequence (P11798 whole entry): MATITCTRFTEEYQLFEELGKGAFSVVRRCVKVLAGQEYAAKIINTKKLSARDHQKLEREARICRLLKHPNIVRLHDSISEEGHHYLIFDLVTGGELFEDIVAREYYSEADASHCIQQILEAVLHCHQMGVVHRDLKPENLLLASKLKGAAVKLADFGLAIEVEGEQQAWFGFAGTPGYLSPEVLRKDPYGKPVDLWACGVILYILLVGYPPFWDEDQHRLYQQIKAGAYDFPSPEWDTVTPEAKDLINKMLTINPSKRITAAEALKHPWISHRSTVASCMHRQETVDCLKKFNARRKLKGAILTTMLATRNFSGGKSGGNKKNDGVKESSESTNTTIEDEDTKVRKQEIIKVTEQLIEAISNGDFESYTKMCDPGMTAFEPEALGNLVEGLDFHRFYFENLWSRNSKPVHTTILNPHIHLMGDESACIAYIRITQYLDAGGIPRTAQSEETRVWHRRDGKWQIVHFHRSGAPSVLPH
# Chain of GABAB receptors (Q9UBS5 15-961 limits assumed): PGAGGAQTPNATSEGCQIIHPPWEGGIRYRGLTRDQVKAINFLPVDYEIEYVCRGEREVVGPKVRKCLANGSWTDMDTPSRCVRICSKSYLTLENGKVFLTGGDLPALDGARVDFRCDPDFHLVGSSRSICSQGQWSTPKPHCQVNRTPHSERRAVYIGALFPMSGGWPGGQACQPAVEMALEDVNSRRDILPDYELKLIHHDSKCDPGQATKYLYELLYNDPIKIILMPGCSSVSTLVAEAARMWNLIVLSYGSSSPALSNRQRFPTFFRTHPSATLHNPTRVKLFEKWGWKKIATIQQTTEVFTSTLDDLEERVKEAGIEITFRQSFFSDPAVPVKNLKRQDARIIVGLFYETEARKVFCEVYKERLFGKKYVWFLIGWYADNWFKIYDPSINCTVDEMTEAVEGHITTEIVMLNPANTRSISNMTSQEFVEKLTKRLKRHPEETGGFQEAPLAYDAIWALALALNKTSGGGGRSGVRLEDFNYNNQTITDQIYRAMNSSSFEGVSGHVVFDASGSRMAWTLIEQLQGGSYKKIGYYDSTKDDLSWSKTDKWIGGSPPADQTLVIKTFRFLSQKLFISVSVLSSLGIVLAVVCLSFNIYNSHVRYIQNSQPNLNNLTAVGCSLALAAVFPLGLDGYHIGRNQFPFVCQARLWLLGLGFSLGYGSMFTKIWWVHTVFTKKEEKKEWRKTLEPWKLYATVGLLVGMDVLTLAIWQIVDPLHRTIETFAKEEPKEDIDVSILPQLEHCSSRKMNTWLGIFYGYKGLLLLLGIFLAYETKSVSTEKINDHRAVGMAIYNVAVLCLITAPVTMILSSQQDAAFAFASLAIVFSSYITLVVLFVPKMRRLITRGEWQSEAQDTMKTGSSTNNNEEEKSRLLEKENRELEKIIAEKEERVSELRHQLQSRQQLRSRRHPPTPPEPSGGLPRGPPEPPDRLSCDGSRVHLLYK
# Chain of GABAB receptors (O75899 42-941 partner): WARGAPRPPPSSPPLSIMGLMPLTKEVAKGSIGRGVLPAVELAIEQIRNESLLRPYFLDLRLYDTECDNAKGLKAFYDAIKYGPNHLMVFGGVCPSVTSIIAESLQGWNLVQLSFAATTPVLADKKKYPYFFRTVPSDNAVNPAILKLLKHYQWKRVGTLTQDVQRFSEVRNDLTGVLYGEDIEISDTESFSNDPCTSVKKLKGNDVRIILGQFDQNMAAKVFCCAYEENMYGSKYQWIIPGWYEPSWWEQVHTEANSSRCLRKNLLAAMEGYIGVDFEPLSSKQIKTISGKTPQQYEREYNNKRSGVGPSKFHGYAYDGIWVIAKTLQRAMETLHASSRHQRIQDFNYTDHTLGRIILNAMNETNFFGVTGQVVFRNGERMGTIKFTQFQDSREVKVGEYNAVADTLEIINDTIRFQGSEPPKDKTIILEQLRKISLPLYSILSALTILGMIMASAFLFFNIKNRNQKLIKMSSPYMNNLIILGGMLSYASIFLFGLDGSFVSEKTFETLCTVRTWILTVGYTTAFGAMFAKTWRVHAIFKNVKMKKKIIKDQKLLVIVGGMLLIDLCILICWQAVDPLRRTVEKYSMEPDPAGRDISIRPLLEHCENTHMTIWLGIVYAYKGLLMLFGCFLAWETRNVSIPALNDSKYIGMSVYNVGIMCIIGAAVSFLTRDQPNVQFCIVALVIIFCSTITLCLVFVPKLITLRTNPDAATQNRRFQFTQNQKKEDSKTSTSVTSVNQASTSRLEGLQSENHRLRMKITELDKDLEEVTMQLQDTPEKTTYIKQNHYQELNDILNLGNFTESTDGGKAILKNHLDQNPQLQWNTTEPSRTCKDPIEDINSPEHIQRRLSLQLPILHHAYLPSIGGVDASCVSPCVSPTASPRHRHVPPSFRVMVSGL
# Chain of CaMK2a (Homo sapiens, UniProt Q9UQM7) (Q9UQM7 whole entry): as the sequence (P11798 whole entry) above, with N324S counted along it
smiles,measurement,setting,value
O=C(O)C1=CC(O)CC1 (stereo not drawn) [^3H-HOCPCA],3H-HOCPCA binding levels in brain slices,CaMK2a [1],Increased Binding
same,3H-HOCPCA binding to mutated CaMK2a compared to wild-type,rat CaMK2a,completely abolished binding
O=C(O)/C=C1\CCCc2cc(-c3ccccc3)ccc2C1O (stereo not drawn) [Ph-HTBA],treatment effect on sleep/wake parameters and cataplexy episodes,[2],overall statistical significant effect
O=C(O)CCCO [GHB],binding affinity to GABAB receptors,GABAB receptors,low affinity (millimolar)
same,binding affinity to specific protein in neurons (CaMK2a),CaMK2a [3],high affinity (nanomolar to micromolar)
NCC(CC(=O)O)c1ccc(Cl)cc1 (stereo not drawn) [baclofen],efficacy on narcolepsy symptoms,[4],has efficacy on narcolepsy symptoms
"O=C(O)C1=CC(O)CC1 (stereo not drawn) [HOCPCA, 3-hydroxycyclopent-1-enecarboxylic acid]",cataplexy,"[5]; day 8, p=0.044",decreases cataplexy significantly
same,cataplexy,"[5]; day 15, p=0.010",decreases cataplexy significantly
same,"wakefulness, medium long wake bouts","[5]; p=0.01, two-way ANOVA with post hoc Dunnett",significant decrease of medium long wake bouts
